According to patent publication US6110962A, “11-aryl-benzo[B]naphtho[2,3-D]furans and 11-aryl-benzo[B]naphtho[2,3-D]thiophenes useful in the treatment of insulin resistance and hyperglycemia” (American Home Products Corporation, priority 1999, dated 2000):
Like-named read-outs stand apart in the source and are kept apart here.

Experiments:
[1] = biological target: T1, Human recombinant PTP1B (Homo sapiens, UniProt P18031); format: biochemical; conditions: read-out: IC50
T1 construct: made in house
T1 sequence (P18031 1-435): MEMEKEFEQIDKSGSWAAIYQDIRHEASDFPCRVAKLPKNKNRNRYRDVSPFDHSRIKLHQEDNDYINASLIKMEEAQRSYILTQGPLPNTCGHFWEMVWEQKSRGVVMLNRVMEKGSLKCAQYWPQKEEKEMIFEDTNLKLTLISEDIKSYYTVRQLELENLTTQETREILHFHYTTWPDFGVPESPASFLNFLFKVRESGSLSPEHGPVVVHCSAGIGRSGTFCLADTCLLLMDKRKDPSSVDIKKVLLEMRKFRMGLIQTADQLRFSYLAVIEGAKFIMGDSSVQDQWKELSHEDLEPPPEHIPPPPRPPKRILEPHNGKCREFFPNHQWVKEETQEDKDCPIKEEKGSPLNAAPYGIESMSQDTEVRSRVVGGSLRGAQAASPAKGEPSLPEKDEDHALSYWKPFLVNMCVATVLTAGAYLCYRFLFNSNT

[2] = system: diabetic (ob/ob) mice; test: Blood glucose lowering activity in diabetic (ob/ob) mice; format: in vivo, mouse; conditions: ob/ob mice; for change in vivo at 100 mg/kg / change in vivo at 10 mg/kg / change in vivo at 25 mg/kg / change in vivo at 50 mg/kg / change in vivo at 75 mg/kg / change in vivo at 5 mg/kg: Mus musculus, po
Procedure: The blood glucose lowering activity of representative compounds of this invention were determined in an in vivo standard procedure using diabetic (ob/ob) mice. The procedures used and results obtained are briefly described below. The non-insulin dependent diabetic (NIDDM) syndrome can be typically characterizes by obesity, hyperglycemia, abnormal insulin secretion, hyperinsulinemia and insulin resistance. […] In each test procedure, mice [Male or female ob/ob (C57 B1/6J) and their lean litermates (ob+ or +/+, Jackson Laboratories) ages 2 to 5 months (10 to 65 g)] of a similar age were randomized according to body weight into 4 groups of 10 mice. The mice were housed 5 per cage and are maintained on normal rodent chow with water ad libitum. Mice received test compound daily by gavage (suspended in 0.5 ml of 0.5% methyl cellulose); dissolved in the drinking water; or admixed in the diet. […] The dose is calculated based on the fed weekly body weight and is expressed as active moiety. […] Control mice received vehicle only. On the morning of Day 4, 7 or 14 two drops of blood (approximetly 50 ul) were collected into sodium fluoride containing tubes either from the tail vein or after decapitation. For those studies in which the compound was administered daily by gavage the blood samples were collected two hours after compound administration. The plasma was isolated by centrifugation and the concentration of glucose is measured enzymatically on an Abbott V. P. Analyzer. […] Analysis of variance followed by Dunett's Comparison Test (one-tailed) are used to estimate the significant difference between the plasma glucose values from the control group and the individual compound treated groups (CMS SAS Release 5.18).

[3] = system: rat hepatic microsomal PTPases; conditions: PTPase activity, compound at 50 μM
[4] = 96 h, plasma glucose Day 4, 7 or 14, read-out: % Change Glucose from Vehicle
[5] = read-out: % Change Insulin from Vehicle
[6] = 96 h, dose 25 mg/Kg, plasma glucose Day 4, 7 or 14, read-out: % Change Glucose from Vehicle
[7] = dose 25 mg/Kg, read-out: % Change Insulin from Vehicle

Structure (SMILES)	IC50 [1] [nM]	% Change from Control [3] [%]	change in vivo at 100 mg/kg [2, 4] [%]	change in vivo at 100 mg/kg [2, 5] [%]	change in vivo at 25 mg/kg [2, 6] [%]	also measured
O=C(O)[C@@H](Cc1ccccc1)Oc1c(Br)cc(-c2c3ccccc3c(Sc3ccccc3)c3sc4ccccc4c23)cc1Br [Example 128, (R)-2-[2,6-Dibromo-4-(6-phenylsulfanyl-benzo[b]naphtho[2,3-d]thiophen-11-yl)-phenoxy]-3-phenyl-propionic acid]	25	-50.94	–	–	3.1	change in vivo at 25 mg/kg [2, 7]: -38.8%
O=C(O)[C@@H](CCN1C(=O)c2ccccc2C1=O)Oc1c(Br)cc(-c2c3ccccc3cc3sc4ccccc4c23)cc1Br [Example 146, (R)-2-(4-Benzo[b]naphtho[2,3-d]thiophen-11-yl-2,6-dibromo-phenoxy)-4-(1,3-dioxo-1 , 3-dihydro-isoindol-2-yl)-butyric acid]	64	-71.95	-45.8	-56.2	–	–
O=C(O)C(Cc1c[nH]c2ccccc12)Oc1c(Br)cc(-c2c3ccccc3c(Br)c3sc4ccccc4c23)cc1Br (racemic) [Example 122, (R,S)-2-[2.6-Dibromo-4-(6-bromo-benzo[b]naphtho[2,3-d]thiophen-11-yl)-phenoxy]-3-(1 H-indol-3-yl)-propionic acid]	36	-85.46	-28.1	-37.4	–	–
O=C(O)[C@@H](Cc1ccccc1)Oc1c(Br)cc(-c2c3ccccc3c(I)c3sc4ccccc4c23)cc1Br [Example 136]	50	-63.42	–	–	-23.6	change in vivo at 25 mg/kg [2, 7]: -52%
N#Cc1c2ccccc2c(-c2cc(Br)c(O[C@@H](Cc3ccccc3)C(=O)O)c(Br)c2)c2c1sc1ccccc12 [Example 115, (S)-2-[2,6-Dibromo-4-(6-cyano-benzo[b]naphtho[2,3-d]thiophen-11-yl)-phenoxy]-3-phenyl-propionic acid]	279	-55.43	-33.9	52	–	–
O=C(O)[C@@H](Cc1ccccc1)Oc1c(Br)cc(-c2c3ccccc3c(Br)c3oc4ccccc4c23)cc1Br [Example 216, (R)-2-[2,6-Dibromo-4-(6-bromo-benzo[b]naphtho[2,3-d]furan-11-yl)-phenoxy]-3-phenyl-propionic acid]	83	-60.67	–	–	–	change in vivo at 5 mg/kg [2, 4]: -14.8%; change in vivo at 10 mg/kg [2, 4]: -28.7%; change in vivo at 5 mg/kg [2, 5]: -55.9%; change in vivo at 10 mg/kg [2, 5]: -69.4%
O=C(O)[C@@H](Cc1ccccc1)Oc1c(Br)cc(-c2c3c(c(Br)c4ccccc24)S(=O)(=O)c2ccccc2-3)cc1Br [Example 189]	1390	-89.32	-46.8	11	–	–
Cc1cc(-c2c3ccccc3c(C)c3sc4ccccc4c23)cc(C)c1O[C@H](Cc1ccccc1)C(=O)O [Example 138, (R)-2-[2,6-Dimethyl-4-(6-methyl-benzo[b]naphtho[2,3-d]thiophen-11-yl)-phenoxy]-3-phenyl-propionic acid]	636	-69.13	–	–	-13.8	change in vivo at 25 mg/kg [2, 7]: -91.9%

More lines, main results first:

IC50 [1] [nM]	% Change from Control [3] [%]	Structure (SMILES)	change in vivo at 100 mg/kg [2, 4] [%]	change in vivo at 100 mg/kg [2, 5] [%]	change in vivo at 25 mg/kg [2, 6] [%]	also measured
490	-80.93	O=C(O)COc1c(Br)cc(-c2c3ccccc3c(Br)c3oc4ccccc4c23)cc1Br [Example 215, [2,6-Dibromo-4-(6-bromo-benzo[b]naphtho[2,3-d]furan-11-yl)-phenoxy]-acetic acid]	-39.4	-4.66	–	–
184	-74.70	C[C@@H](Oc1c(Br)cc(-c2c3ccccc3c(Br)c3sc4ccccc4c23)cc1Br)C(=O)O [Example 121, (R)-2-[2,6-Dibromo-4-(6-bromo-benzo[b]naphtho[2,3-d]thiophen-11-yl)-phenoxy]-propionic acid]	-54.6	-87.8	–	change in vivo at 10 mg/kg [2, 4]: 1.37%; change in vivo at 10 mg/kg [2, 5]: -41.8%
62	-76.45	O=C(O)[C@H](Cc1ccccc1)Oc1c(Br)cc(-c2c3ccccc3c(Br)c3sc4ccccc4c23)cc1Br [Example 111, (S)-2-[2,6-Dibromo-4-(6-bromo-benzo[b]naphtho[2,3-d]thiophen-11-yl)-phenoxy]-3-phenyl-propionic acid]	-39.4	-17.9	–	–
61	–	O=C(O)[C@@H](Cc1ccccc1)Oc1c(Br)cc(-c2c3ccccc3c(Br)c3sc4ccccc4c23)cc1Br [Example 108, (R)-2-[2,6-Dibromo-4-(6-bromo-benzo[b]naphtho[2,3-d]thiophen-11-yl)-phenoxy]-3-phenyl-propionic acid]	-45.8	-72.6	–	change in vivo at 10 mg/kg [2, 4]: -26.1%; change in vivo at 50 mg/kg [2, 4]: -34.8%; change in vivo at 75 mg/kg [2, 4]: -49.7%; change in vivo at 10 mg/kg [2, 5]: -30.3%; change in vivo at 50 mg/kg [2, 5]: -84.8%; change in vivo at 75 mg/kg [2, 5]: -89.6%; % Change Insulin from Vehicle ([2]; dose 25 mg/Kg): -71.03%; % Change Glucose from Vehicle ([2]; dose 25 mg/Kg, plasma glucose Day 4, 7 or 14, 25 mg/kg): -25.66%; % Change from Control ([3]; 50 µM): -72.94%
1510	-79.06	O=C(O)[C@@H](Cc1ccccc1)Oc1ccc(-c2c3ccccc3cc3sc4ccccc4c23)cc1 [Example 117, (R)-2-[4-(Benzo[b]naphtho[2,3-d]thiophen-11-yl)-phenoxy]-3-phenyl-propionicacid]	-14.5	-83.8	–	–
56	-82.25	O=C(O)C(Cc1ccc(F)cc1)Oc1c(Br)cc(-c2c3ccccc3c(Br)c3sc4ccccc4c23)cc1Br (stereo not shown) [Example 155, 2-[2,6-Dibromo-4-(6-bromo-benzo[b]naphtho[2,3-d]thiophen-11-yl)-phenoxy]-3-(4-fluoro-phenyl)-propionic acid]	–	–	-28.9	change in vivo at 25 mg/kg [2, 7]: -63.2%
126	-61.04	CC(C)c1cc(-c2c3ccccc3c(Br)c3sc4ccccc4c23)cc(C(C)C)c1OCC(=O)O [Example 89, [4-(6-Bromo-benzo[b]naphtho[2,3-d]thiophen-11-yl)-2,6-diisopropyl-phenoxy)-acetic acid]	–	–	–	change in vivo at 10 mg/kg [2, 4]: -24.9%
217	-79.35	COc1cc(-c2c3ccccc3c(Br)c3sc4ccccc4c23)cc(Br)c1O[C@H](Cc1ccccc1)C(=O)O [Example 194, (R)-2-[2-Bromo-4-(6-bromo-benzo[b]naphtho[2,3-d]thiophen-11-yl)-6-methoxy-phenoxy]-3-phenyl-propionic acid]	–	–	-32	–
74	-29.03	Oc1cc(-c2c3ccccc3c(Br)c3sc4ccccc4c23)cc(Br)c1O [Example 70, 3-Bromo-5-(6-bromo-benzo[b]naphtho[2,3-d]thiophen-11-yl)-benzene-1,2-diol]	–	–	-28.6	change in vivo at 25 mg/kg [2, 7]: 45.7%
1680	-63.18	O=C(O)COc1ccc(-c2c3ccccc3c(Br)c3sc4ccccc4c23)cc1 [Example 87]	-15.8	-88	–	–
